# Results: PMC5361891 (Journal of chemical information and modeling, 2017)
# Tests used:
# [1] = biological target: human 5-HT2AR (Homo sapiens, UniProt P28223); test: Radioligand binding assay, [3H]-Ketanserin displacement; conditions: read-out: Ki 5-HT2A; HEK293 cell membranes, 1.0 nM [3H]-Ketanserin, 37 °C 1 h
# [2] = biological target: human 5-HT6R (Homo sapiens, UniProt P50406); test: Radioligand binding assay, [3H]-LSD displacement; conditions: read-out: Ki 5-HT6; HEK293 cell membranes, 2 nM [3H]-LSD, 37 °C 1 h
# [3] = biological target: human 5-HT7bR (Homo sapiens, UniProt P34969); test: Radioligand binding assay, [3H]-5-CT displacement; conditions: read-out: Ki 5-HT7; HEK293 cell membranes, 0.6 nM [3H]-5-CT, 37 °C 1 h
# [4] = biological target: 5-HT1AR; conditions: affinity toward 5-HT1AR; cited from earlier work
# Sequence of human 5-HT7bR (P34969 1-432 limits assumed): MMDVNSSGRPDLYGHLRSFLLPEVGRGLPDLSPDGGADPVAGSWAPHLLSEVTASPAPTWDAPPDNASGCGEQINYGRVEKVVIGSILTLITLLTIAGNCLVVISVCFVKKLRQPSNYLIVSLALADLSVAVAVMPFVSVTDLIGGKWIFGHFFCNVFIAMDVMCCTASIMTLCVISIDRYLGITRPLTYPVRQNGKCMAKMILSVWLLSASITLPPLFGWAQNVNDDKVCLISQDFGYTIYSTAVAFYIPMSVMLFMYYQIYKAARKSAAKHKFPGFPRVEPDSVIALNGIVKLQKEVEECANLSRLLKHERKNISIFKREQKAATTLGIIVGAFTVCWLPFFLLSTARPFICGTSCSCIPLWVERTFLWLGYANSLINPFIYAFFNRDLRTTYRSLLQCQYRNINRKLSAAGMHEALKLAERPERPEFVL
# Sequence of human 5-HT6R (P50406 whole entry): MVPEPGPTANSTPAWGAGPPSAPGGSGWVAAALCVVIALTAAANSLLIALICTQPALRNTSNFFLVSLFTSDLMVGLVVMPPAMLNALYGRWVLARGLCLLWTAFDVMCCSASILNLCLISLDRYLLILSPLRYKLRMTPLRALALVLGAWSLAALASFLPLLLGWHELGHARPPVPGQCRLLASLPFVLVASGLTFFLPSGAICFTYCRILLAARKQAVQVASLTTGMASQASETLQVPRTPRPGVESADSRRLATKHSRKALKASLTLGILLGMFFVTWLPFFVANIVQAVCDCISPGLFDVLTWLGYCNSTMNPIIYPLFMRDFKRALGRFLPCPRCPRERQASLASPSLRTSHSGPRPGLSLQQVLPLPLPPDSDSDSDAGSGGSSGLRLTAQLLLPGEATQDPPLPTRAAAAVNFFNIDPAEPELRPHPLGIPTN
# Sequence of human 5-HT2AR (P28223 whole entry): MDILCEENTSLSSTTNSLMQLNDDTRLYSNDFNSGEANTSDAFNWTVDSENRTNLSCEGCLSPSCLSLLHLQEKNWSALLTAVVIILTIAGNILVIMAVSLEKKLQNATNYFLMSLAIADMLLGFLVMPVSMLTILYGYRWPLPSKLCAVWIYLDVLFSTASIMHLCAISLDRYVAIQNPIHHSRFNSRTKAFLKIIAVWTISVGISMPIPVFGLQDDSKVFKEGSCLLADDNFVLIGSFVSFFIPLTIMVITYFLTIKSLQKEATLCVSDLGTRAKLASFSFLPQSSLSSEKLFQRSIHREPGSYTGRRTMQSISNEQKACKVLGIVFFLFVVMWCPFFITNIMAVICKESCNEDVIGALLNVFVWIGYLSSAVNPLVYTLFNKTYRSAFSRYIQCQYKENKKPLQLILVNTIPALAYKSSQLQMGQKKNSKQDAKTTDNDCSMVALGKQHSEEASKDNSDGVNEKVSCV
SMILES,Ki [1],Ki [2],Ki [3],Ki [4]
COC(=O)c1ccc(C2c3c(-c4ccccc4O)n[nH]c3C(=O)N2Cc2ccncc2)cc1 (stereo not shown) [D174-0581],3.75 µM,13.5 µM,6.48 µM,–
"COc1ccccc1N1CCN(CCCCNC(=O)C23CC4CC(C2)C(C4)C3)CC1 [NBUMP, 4-[4-(1-noradamantanecarboxamido)butyl]-1-(2-methoxyphenyl)piperazine]",–,–,–,0.0001 µM
